The values below come from publication PMC4795541, “A Rapid and Quantitative Flow Cytometry Method for the Analysis of Membrane Disruptive Antimicrobial Activity” (PLoS ONE, 2016).

Converted amounts (≈) assume the structure as drawn. Marks after values point to notes of the source that are not given here. Where a SMILES comes first, the peptide text is derived from it. Where no end group is shown, it is not given here. [ ]: non-standard residue; d: D form. Phe(ol) = N[C@H](CO)Cc1ccccc1; Aib = CC(C)(N)C(=O)O

Assay [1] deals with A. baumannii strain 2208, ATCC 19606. To be noted: A. baumannii strain 2208, ATCC 19606; 90 min incubation; average of 3 assays ± SD. The procedure, abridged: (§1)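 Peptides dissolved in DMSO were diluted in the appropriate broth (250–0.244 μM before bacteria were added) and mixed with 2.5 × 10^5 viable cells per well. Plates stood 90 min at 37°C. The anaerobe F. nucleatum grew in cysteine-supplemented BHI, while the aerobic strains grew in LB. Inhibition followed CLSI broth microdilution.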

For assay [2], the system named is E. aerogenes ATCC 13048. To be noted: E. aerogenes ATCC 13048; 90 min incubation; average of 3 assays ± SD. The procedure, abridged:
(§2)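 Late-exponential bacteria (BacLight/flow cytometry counted) at 2.5 × 10^5 cells/well were incubated 90 min at 37°C with peptide dilution series (250–0.244 μM in media before bacteria were added). F. nucleatum was run anaerobically in BHI with 0.05% L-cysteine, and the other strains aerobically in LB. MIC was then read by CLSI broth microdilution.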

For assay [3], the system named is E. coli ATCC 25922. To be noted: E. coli ATCC 25922; 90 min incubation; average of 3 assays ± SD. The procedure, abridged:
as §2

Assay [4] deals with E. faecalis ATCC 29212. To be noted: E. faecalis ATCC 29212; 90 min incubation; average of 3 assays ± SD. The procedure, abridged:
as §1

Assay [5] relates to K. pneumoniae ATCC 13883. To be noted: K. pneumoniae ATCC 13883; 90 min incubation; average of 3 assays ± SD. The procedure, abridged: as §2
Assay [6] concerns P. aeruginosa strain PAO1-LAC, ATCC 47085. The following applies: P. aeruginosa PAO1-LAC, ATCC 47085; 90 min incubation; average of 3 assays ± SD. The method, boiled down:
as §1

Assay [7] has as its system S. aureus (MRSA) ATCC 43300. To be noted: S. aureus (MRSA) ATCC 43300; 90 min incubation; average of 3 assays ± SD. The method, boiled down:
as §1

Assay [8] deals with S. aureus (MSSA) ATCC 29213. To be noted: S. aureus (MSSA) ATCC 29213; 90 min incubation; average of 3 assays ± SD. The procedure, abridged:
as §1

Assay [9] deals with A. baumannii strain 2208, ATCC 19606. To be noted: A. baumannii strain 2208, ATCC 19606; 90 min incubation; average of 3 assays ± SD. The method, boiled down: (§3)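 Values are minimum inhibitory, bactericidal and membrane-disruptive concentrations after a 90-min, 37°C incubation of late-exponential bacteria with serially diluted peptides. Media and atmosphere were matched to each strain: Luria Broth aerobically, and Todd Hewitt broth under anaerobic conditions for S. mutans.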
The source holds these as a separate data set.

Assay [10] deals with E. aerogenes ATCC 13048. The following applies: E. aerogenes ATCC 13048; 90 min incubation; average of 3 assays ± SD. The method, boiled down: as §3
The source holds these as a separate data set.

In assay [11] the test system is E. coli ATCC 25922. To be noted: E. coli ATCC 25922; 90 min incubation; average of 3 assays ± SD. The procedure, abridged:
as §3
The source holds these as a separate data set.

Assay [12] relates to E. faecalis ATCC 29212. The following applies: E. faecalis ATCC 29212; 90 min incubation; average of 3 assays ± SD. The procedure, abridged:
as §3
This is another data set of the same source.

For assay [13], the system named is K. pneumoniae ATCC 13883. The following applies: K. pneumoniae ATCC 13883; 90 min incubation; average of 3 assays ± SD. The method, boiled down: as §3
This is another data set of the same source.

Assay [14] concerns P. aeruginosa strain PAO1-LAC, ATCC 47085. The following applies: P. aeruginosa PAO1-LAC, ATCC 47085; 90 min incubation; average of 3 assays ± SD. The procedure, abridged: as §3
This is another data set of the same source.

Assay [15] concerns S. aureus (MRSA) ATCC 43300. The following applies: S. aureus (MRSA) ATCC 43300; 90 min incubation; average of 3 assays ± SD. The method, boiled down: as §3
The source holds these as a separate data set.

Assay [16] deals with S. aureus (MSSA) ATCC 29213. The following applies: S. aureus (MSSA) ATCC 29213; 90 min incubation; average of 3 assays ± SD. The procedure, abridged: as §3
This is another data set of the same source.

Assay [17] concerns A. baumannii strain 2208, ATCC 19606. The assay can be described thus: MDC, flow cytometry Syto9/PI membrane disruption assay. To be noted: 90 min incubation, average of 3 assays ± SD. The class given is cell-based, Acinetobacter baumannii. From the text:
The bacterial strains; Fusobacterium nucleatum ATCC 25586, Streptococcus mutans Ingbritt, Staphylococcus aureus (MSSA) ATCC 29213; Staphylococcus aureus (MRSA) ATCC 43300; Enterococcus faecalis ATCC 29212; Enterobacter aerogenes ATCC 13048; Pseudomonas aeruginosa strain PAO1-LAC, ATCC 47085; Klebsiella pneumoniae ATCC 13883; Acinetobacter baumannii strain 2208, ATCC 19606; Escherichia coli ATCC 25922 lyophilised or glycerol stocks were obtained from the culture collection of the Oral Health Cooperative Research Centre, The Melbourne Dental School, University of Melbourne, Australia. These strains were selected for this study as they are widely used in antimicrobial studies and are considered to be important pathogens and major targets for antibiotic resistant studies. […] After overnight incubation, 0.5–2.0 mL of the starter culture was used to inoculate the appropriate fresh broth (200 mL) and growth monitored at 650 nm using a spectrophotometer (model 275E; Perkin-Elmer, Sydney, Australia) with culture purity checked by microscopic examination and culture. Bacteria were harvested during late exponential growth phase and viability and bacteria/mL determined using a BacLight viability kit (Invitrogen, Sydney, Australia) and a Quanta SC-MPL flow cytometer (Beckman coulter Pty, Ltd, Sydney, Australia). […]
For orientation: Flow cytometry measures light scatter and fluorescence of single cells or particles in a stream.

What is called MIC is the smallest concentration in the dilution series that meets the test's criterion for growth inhibition. The low end stands for greater potency, the high end for weaker potency. One may read the MBC as the smallest concentration meeting the test's criterion for killing. A lower MBC goes with more potent killing.

Regarding `CC(=O)NC(C)(C)C(=O)N1CCC[C@H]1C(=O)NC(C)(C)C(=O)N[C@@H](C)C(=O)NC(C)(C)C(=O)N[C@@H](C)C(=O)N[C@@H](CCC(N)=O)C(=O)NC(C)(C)C(=O)N[C@H](C(=O)NC(C)(C)C(=O)NCC(=O)N[C@@H](CC(C)C)C(=O)NC(C)(C)C(=O)N1CCC[C@H]1C(=O)N[C@H](C(=O)NC(C)(C)C(=O)NC(C)(C)C(=O)N[C@@H](CCC(=O)O)C(=O)N[C@@H](CCC(N)=O)C(=O)N[C@H](CO)Cc1ccccc1)C(C)C)C(C)C` [Alamethicin] (Ac-[Aib]P[Aib]A[Aib]AQ[Aib]V[Aib]GL[Aib]PV[Aib][Aib]EQ[Phe(ol)]; N-terminus assumed), the MIC in assay [1] was 142.9±19.6^e μM; in the assay on E. aerogenes ATCC 13048 [2] it was greater than 250 µM; with E. coli ATCC 25922 [3], greater than 250 µM; against E. faecalis ATCC 29212 [4], 30.1±9.6^e μM; against K. pneumoniae ATCC 13883 [5], greater than 250 µM; in [6], greater than 250 µM. The MIC in assay [7] amounted to 50.8 ± 3.5 µM (≈ 99.8 µg/mL); in [8], 31.4 ± 7.4 µM (≈ 61.7 µg/mL). The MBC in assay [9] was greater than 250 µM; in the assay with E. aerogenes ATCC 13048 [10] it was greater than 250 µM; against E. coli ATCC 25922 [11], greater than 250 µM; in the assay with E. faecalis ATCC 29212 [12], 48.1 ± 5.4 µM (≈ 94.5 µg/mL); in the assay with K. pneumoniae ATCC 13883 [13] it was greater than 250 µM; in assay [14] it was greater than 250 µM. The MBC is 59.2 ± 1.7 µM (≈ 116 µg/mL) in assay [15] and 27.9 ± 6.9 µM (≈ 54.8 µg/mL) in assay [16]. The MDC in assay [17] was greater than 250 µM.

For the molecule “GIGKFLHSAKKFGKAFVGEIMNS-NH2 [Magainin II]”, the MIC in assay [1] was 15.1±1.53^e μM; against E. aerogenes ATCC 13048 [2], greater than 250 µM; against E. coli ATCC 25922 [3], 29.5±3.7^e μM; in the assay with E. faecalis ATCC 29212 [4], greater than 250 µM; with K. pneumoniae ATCC 13883 [5] it was 132.2 ± 28.5 µM; in assay [6], 26.1±1.2^e μM. The MIC in assay [7] and in assay [8] was greater than 250 µM each time. Moreover, the MBC in [9] was 20.0 ± 1.0 µM; against E. aerogenes ATCC 13048 [10], greater than 250 µM; in the assay with E. coli ATCC 25922 [11] it was 48.1 ± 12.4 µM; against E. faecalis ATCC 29212 [12], greater than 250 µM; in the assay with K. pneumoniae ATCC 13883 [13] it was 142.3 ± 19.5 µM; in assay [14], 56.3 ± 4.2 µM. Also, the MBC in assay [15] and in assay [16] was greater than 250 µM throughout.
